Assay results: US20260356860A1, “2-SUBSTITUTED 3,4A,5,7,8,8A-HEXAHYDRO-4H-THIOPYRANO[4,3-DJPYRIMIDIN-4-ONES FOR WOUND TREATMENT” (priority 2022, published 2026)

What was measured:
[1] = tested on: HEK293 SuperTOPFlash reporter cells, Wnt promoter; experiment: HEK CELL Wnt Assay (luciferase reporter); type: cell-based; conditions: serial dilutions, with or without 50 ng/mL Wnt3a; 18 h
Procedure: In order to determine the effect of the compounds of Formula (I) on Wnt inhibition, an in vitro assay using HEK293 SuperTOPFlash reporter cells, with the Wnt promoter driving a luciferase reporter gene, were utilized. 40,000 HEK293 SuperTOPFlash reporter cells were seeded, per well, in a 48 well plate for 24 hours, prior to administration of serial dilutions of the compound of Formula (I) to individual wells. Serial dilutions ranging from […] to 1 nM of the compound of Formula (I) were added with or without 50 ng/mL Wnt3a (Time Biosciences) and allowed to incubate with the reporter cells for 18 hours. Reporter cells with no treatment were used as negative control.

[2] = cited from earlier work
TK2 = conditions: cell-free assay; read-out: IC50, TK2 inhibition; cited from earlier work
wound = conditions: in a GO-HA matrix; cited from earlier work
ear punch wound = conditions: cited from earlier work
CRE, F-κB, or TGF-β = conditions: cited from earlier work
[3] = tested on: E. coli (derived from ATCC ® 25922 ™); experiment: Bacteriostasis, log reduction; type: cell-based; conditions: E. coli ATCC 25922
Procedure: (§1) In order to assess the log reduction capabilities of compounds of Formula (1), testing was performed on organisms that are found in acute and chronic wounds. Triplicate tubes were prepared for each bacteria using 50 μL of inoculum (about 1×10^6 CFU/mL) which was added to 450 μL of compound solution (compound of Formula (I)) (or 100 μL of inoculum in 900 μL of compound solution), resulting in a final inoculum of about 1×10^5 CFU/mL, as shown in Table 4.
(§2) Tubes were mixed with a vortex and then incubated in a shaking incubator at 175 RPM and 35° C. to 37° C.
(§3) Positive control in Tables 5a and 5b was 1 mL of 0.89% saline with 1 mL of the 1×10^6 CFU/mL of the organism.
(§4) For Compounds 1, 7, 8, 10, and 18 in Tables 6, 7-A, 7-B, 8, 9, 10-A, 10-B, and 11: The compound solutions were prepared with compound (30 mg), polysorbate 20 (1.6 mL), butylene glycol (1.6 mL), phosphatidyl choline (0.66 g), ethanol (1.6 mL), hydroxypropyl cellulose (0.26 g), and ultra pure water (24.9 mL).
(§5) XAV939 Control in Table X1 was XAV939 (30 mg), polysorbate 20 (1.6 mL), butylene glycol (1.6 mL), phosphatidyl choline (0.66 g), ethanol (1.6 mL), ultra pure water (24.9 mL), and hydroxypropyl cellulose (0.26 g).
(§6) GO-HA Control in Table X2 was GO-HA (30 mg), polysorbate 20 (1.6 mL), butylene glycol (1.6 mL), phosphatidyl choline (0.66 g), ethanol (1.6 mL), ultra pure water (24.9 mL), and hydroxypropyl cellulose (0.26 g).
(§7) For Compound 18+GO-HA in Tables 6 and X4: compound 18 (45 mg), GO-HA (45 mg), polysorbate 20 (2 mL), butylene glycol (2 mL), phosphotidyl choline (0.5 g), ethanol (2 mL), hydroxypropyl cellulose (0.40 g), and ultra pure water (40 mL).
(§8) For XAV939+GO-HA in Tables 6 and X3-A, and X3-B: XAV939 (45 mg), GO-HA (45 mg), butylene glycol (2 mL), polysorbate 20 (2 mL), phosphotidyl choline (0.5 g), ethanol (2 mL), hydroxypropyl cellulose (0.40 g), and ultra pure water (40 mL).
(§9) Testing was performed at two time points: 18 to 24 hours, and […].

[4] = tested on: P. aeruginosa (derived from ATCC ® 15442 ™); experiment: Bacteriostasis, log reduction; type: cell-based; conditions: P. aeruginosa ATCC 15442
Procedure: as §1, §2, §3, §4, §5, §6, §7, §8, §9

[5] = tested on: E. coli (derived from ATCC ® 8739 ™); experiment: Bacteriostasis, log reduction; type: cell-based; conditions: E. coli ATCC 8739
Procedure: as §1, §2, §3, §4, §5, §6, §7, §8, §9

[6] = tested on: S. aureus (derived from ATCC ® 6538 ™); experiment: Bacteriostasis, log reduction; type: cell-based; conditions: S. aureus ATCC 6538
Procedure: as §1, §2, §3, §4, §5, §6, §7, §8, §9

[7] = tested on: E. faecalis (derived from ATCC ® 19433 ™); experiment: Bacteriostasis, log reduction; type: cell-based; conditions: E. faecalis ATCC 19433
Procedure: as §1, §2, §3, §4, §5, §6, §7, §8, §9

[8] = tested on: S. aureus (MRSA) (derived from ATCC ® 33593 ™); experiment: Bacteriostasis, log reduction; type: cell-based; conditions: S. aureus (MRSA) ATCC 33593
Procedure: as §1, §2, §3, §4, §5, §6, §7, §8, §9

[9] = tested on: S. epidermidis (derived from ATCC ® 14990 ™); experiment: Bacteriostasis, log reduction; type: cell-based; conditions: S. epidermidis ATCC 14990
Procedure: as §1, §2, §3, §4, §5, §6, §7, §8, §9

TK 1 = conditions: cell-free assay; read-out: IC50, TK 1 inhibition; cited from earlier work

Oc1nc(-c2ccc(C(F)(F)F)cc2)nc2c1CSCC2 [XAV939, reference compound]
IC50 [1]: 50 nM
solubility in water-based solutions [2]: poor solubility in water-based solutions
aqueous solubility ([2]; water): < 1 µg/mL
IC50 (TK2): 4 nM
quality of wound healing (wound): substantial improvement to the quality of wound healing
cartilage regeneration and healing (ear punch wound; 2 mm biopsy punch wound in cartilaginous region of C57B1/CJ mouse): increased cartilage regeneration and healing
wound closure rate and fibrosis (ear punch wound; topical, mouse ear punch): significantly increased rate of wound closure with reduced fibrosis (scarring)
effect on CRE, F-κB, or TGF-β (CRE, F-κB, or TGF-β): does not affect CRE, F-κB, or TGF-β
Average result ([3]; 24 h): 2.8 × 10^4
Log Reduction ([3]; 24 h): 1.0
Log Value ([3]; 24 h): 4.4
Average result ([3]; 72 h): <200
Log Reduction ([3]; 72 h): >3.1
Log Value ([3]; 72 h): <2.3
Average result ([4]; 24 h): <200
Log Reduction ([4]; 24 h): >3.1
Log Value ([4]; 24 h): <2.3
Average result ([4]; 72 h): <200
Log Reduction ([4]; 72 h): >3.1
Log Value ([4]; 72 h): <2.3
Average result ([5]; 24 h): 2.7 × 10^3
Log Reduction ([5]; 24 h): 1.9
Log Value ([5]; 24 h): 3.4
Average result ([5]; 72 h): <200
Log Reduction ([5]; 72 h): >3.0
Log Value ([5]; 72 h): <2.3
Average result ([6]; 24 h): 2.5 × 10^3
Log Reduction ([6]; 24 h): 1.9
Log Value ([6]; 24 h): 3.4
Average result ([6]; 72 h): 1.7 × 10^5
Log Reduction ([6]; 72 h): 0.1
Log Value ([6]; 72 h): 5.2
Average result ([7]; 24 h): 2.6 × 10^5
Log Reduction ([7]; 24 h): No
Log Value ([7]; 24 h): 5.4
Average result ([7]; 72 h): 1.7 × 10^5
Log Reduction ([7]; 72 h): No
Log Value ([7]; 72 h): 5.1
Average result ([8]; 24 h): 8.7 × 10^4
Log Reduction ([8]; 24 h): No
Log Value ([8]; 24 h): 4.9
Average result ([8]; 72 h): <6.8 × 10^3
Log Reduction ([8]; 72 h): >0.8
Log Value ([8]; 72 h): <3.8
Average result ([9]; 24 h): 5.5 × 10^4
Log Reduction ([9]; 24 h): 0.1
Log Value ([9]; 24 h): 4.7
Average result ([9]; 72 h): <200
Log Reduction ([9]; 72 h): >2.5
Log Value ([9]; 72 h): <2.3
IC50 (TK 1): 11 nM
